Literature values as cited in patent publication US20250075209A1, “RNAS FOR COMPLEMENT INHIBITION” (Apellis Pharmaceuticals, Inc., priority 2021, published 2025).
Bridges are numbered along the chain shown (N, C = ends). [ ]: non-standard residue; d: D form. Bpa = N[C@@H](Cc1ccc(C(=O)c2ccccc2)cc1)C(=O)O; 1Nal = N[C@@H](Cc1cccc2ccccc12)C(=O)O; 2Nal = N[C@@H](Cc1ccc2ccccc2c1)C(=O)O; Igl = N[C@H](C(=O)O)C1Cc2ccccc2C1

Tested on: complement activation
Settings: relative to compstatin amidated at the C-terminus; based on published data (WO2004/026328, WO2007044668, Mallik 2005, Katragadda 2006); cited from earlier work

Substance	Activity over compstatin [xmore]
Ac-ICV(1-Nal)QDWGAHRCT-COOH (Ac-ICV[1Nal]QDWGAHRCT-OH; not fully specified (bridges); printed as Ac-ICV(1-Nal)QDWGAHRCT-COOH; cysteine pairing not given here) [Ac V4(1-Nal)/H9A-OH]	30
Ac-ICV(2-Igl)QDWGAHRCT-CONH2 (Ac-ICV[Igl]QDWGAHRCT-NH2; not fully specified (bridges); printed as Ac-ICV(2-Igl)QDWGAHRCT-CONH2; cysteine pairing not given here) [Ac-V42Igl/H9A]	39
Ac-ICV(2-Igl)QDWGAHRCT-COOH (Ac-ICV[Igl]QDWGAHRCT-OH; not fully specified (bridges); printed as Ac-ICV(2-Igl)QDWGAHRCT-COOH; cysteine pairing not given here) [Ac-V42Igl/H9A-OH]	37
Ac-ICV(2-Nal)CQDWGAHRCT-ONH2 (Ac-ICV[2Nal]QDWGAHRCT-NH2; ends and bridges not checked) [Ac-V4(2-Nal)/H9A]	99
Ac-ICV(2-Nal)QDWGAHRCT-COOH (Ac-ICV[2Nal]QDWGAHRCT-OH; not fully specified (bridges); printed as Ac-ICV(2-Nal)QDWGAHRCT-COOH; cysteine pairing not given here) [Ac V4(2-Nal)/H9A-OH]	38
Ac-ICV(Bpa)QDWGAHRCT-CONH2 (Ac-ICV[Bpa]QDWGAHRCT-NH2; not fully specified (bridges); printed as Ac-ICV(Bpa)QDWGAHRCT-CONH2; cysteine pairing not given here) [Ac-V4(Bpa)/H9A]	86
Ac-ICV(Bpa)QDWGAHRCT-COOH (Ac-ICV[Bpa]QDWGAHRCT-OH; not fully specified (bridges); printed as Ac-ICV(Bpa)QDWGAHRCT-COOH; cysteine pairing not given here) [Ac-V4(Bpa)/H9A-OH]	49
Ac-ICVVQDWGHHRCT-CONH2 [Ac-compstatin]	3
Ac-ICVWQDWGAHRCT-CONH2 (Ac-ICVWQDWGAHRCT-NH2; disulfide 2-12 (inferred)) [Ac-V4W/H9A]	45
Ac-ICVWQDWGAHRCdT-COOH [Ac-V4W/H9A/T13dT-OH]	55
Ac-ICVYQDWGAHRCT-CONH2 [Ac-V4Y/H9A]	14
H-GICV(6fW)QD(6fW)GAHRCTN-COOH (GICVXQDXGAHRCTN; not fully specified; 6-fluoro-Trp residues; C-terminal acid; SITE 1 N-term H - hydrogenated Glycine; SITE 5 6-fluoro-tryptophan; SITE 8 6-fluoro-tryptophan; SITE 15 C-term COOH - Asparagine carboxide) [+G/V4(6fW)/W7(6fW)H9A + N-OH]	126
